Measured values from paper PMC8353886 (ACS Medicinal Chemistry Letters, 2021).

Columns and labels:
[1] = tested on: SARS-CoV-2 Spike pseudotyped particle (PP); assay: microbe, parasite or virus in culture; type: cell-based; conditions: Severe acute respiratory syndrome coronavirus 2, read-out: SARS-CoV-2 PP IC50
[2] = tested on: SARS-CoV-2; conditions: in words; cited from earlier work
[3] = tested on: SARS-CoV-1; conditions: cited from earlier work
[4] = tested on: MERS; conditions: cited from earlier work

Structure (SMILES) | IC50 [1] [µM] | inhibitory activity against SARS-CoV-2 in the PP entry assay [2] | inhibitory activity against SARS-CoV-1 in the PP entry assay [3] | inhibitory activity against MERS in the PP entry assay [4]
CN1[C@@H]2CC[C@H]1C[C@@H](OC(c1ccccc1)c1ccc(Cl)cc1)C2 (stereo partly shown) [Clobenztropine] | 12.6 |  |  | 
CN1CCN(C(c2ccccc2)c2ccc(Cl)cc2)CC1 (stereo not shown) [CCZ, chlorcyclizine] |  | inhibitory activities | inhibitory activities | inhibitory activities
